Assay results published in patent US4029688A, “Carbamic pesticidal compositions” (priority 1974, dated 1977).
Converted amounts (≈) assume the structure as drawn.

Tests used:
[1] = system: southern armyworm (Prodenia eridania, (Cram.)); assay: Southern Armyworm Leaf Spray Test; type: in vivo; design: key to Armyworm: C: no control; B: partial control; A: excellent control; conditions: for Armyworm: leaf spray, 500 parts per million, three days; for LC50: Spodoptera eridania, Table II, read-out: Armyworm LD50
Protocol: (§1) Suspensions of the test compounds were prepared by dissolving one gram of compound in 50 milliliters of acetone in which had been dissolved 0.1 gram (10 percent of the weight of compound) of an alkylphenoxy polyethoxyethanol surfactant, as an emulsifying or dispersing agent. The resulting solution was mixed into 150 milliliters of water to give roughly 200 milliliters of a suspension containing the compound in finely divided form. The thus-prepared stock suspension contained 0.5 percent by weight of compound. The test concentrations in parts per million by weight employed in the tests described hereinbelow were obtained by appropriate dilutions of the stock suspension with water. The test procedures were as follows:
Larvae of the southern armyworm (Prodenia eridania, (Cram.)), reared on Tendergreen bean plants at a temperature of 80°±5° F. and a relative humidity of 50±5 percent, constituted the test insects.
The test compounds were formulated by diluting the stock suspension with water to give a suspension containing 500 parts of test compound per million parts of final formulation. Potted Tendergreen bean plants of standard height and age were placed on a revolving turntable and sprayed with 100-110 milliliters of test compound formulation by use of a DeVilbiss spray gun set at 10 psig air pressure. This application, which lasted 25 seconds, was sufficient to wet plants to run-off. As a control, 100-110 milliliters of a water-acetone-emulsifier solution containing no test compound were also sprayed on infested plants. When dry, the paired leaves were separated and each one was placed in a 9 centimeter Petri dish lined with moistened filter paper. Five randomly selected larvae were introduced into each dish and the dishes were closed. The closed dishes were labeled and held at 80-85° F. for three days. Although the larvae could easily consume the whole leaf within twenty-four hours, no more food was added. Larvae which were unable to move the length of the body, even upon stimulation by prodding, were considered dead. Percent mortality was recorded for various concentration levels.
(§2) In the tests described above, the pesticidal activity of the compounds against aphid, mite, Southern Armyworm, Bean Beetle, house fly and nematode was rated as follows:
(§3) Comparison tests were conducted to assess the biological and chemical properties of certain representative species of the claimed invention in relation to their corresponding N-methyl carbamate compositions. The test procedures described above were employed in these experiments in order to determine the LD50 (number of parts per million of active ingredients required to achieve fifty percent mortality of the insects tested) for each of the compositions tested. In the case of the aphid and mite tests a side by side comparison was made of the N-methyl carbamate composition versus the corresponding perhalomethylsulfenyl derivative.

[2] = system: Mexican bean beetle (Epilachna varivestis, Muls.); assay: Mexican Bean Beetle Leaf Spray Test; type: in vivo; design: key to Beetle: C: no control; B: partial control; A: excellent control; conditions: for Beetle: leaf spray, 500 parts per million, three days; for LC50: Epilachna varivestis, Table II, read-out: Beetle LD50
Protocol: as §1
Fourth instar larvae of the Mexican bean beetle (Epilachna varivestis, Muls.), reared on Tendergreen bean plants at a temperature of 80°±5° F. and 50±5 percent relative humidity, were the test insects.
The test compounds were formulated by diluting the stock suspension with water to give a suspension containing 500 parts of test compound per million parts of final formulation. Potted Tendergreen bean plants of standard height and age were placed on a revolving turntable and sprayed with 100-110 milliliters of test compound formulation by use of a DeVilbiss spray gun set at 10 psig air pressure. This application, which lasted 25 seconds, was sufficient to wet plants to run-off. As a control, 100-110 milliliters of a water-acetone-emulsifier solution containing no test compound were also sprayed on infested plants. When dry, the paired leaves were separated and each was placed in a 9 centimeter Petri dish lined with moistened filter paper. Five randomly selected larvae were introduced into each dish, and the dishes were closed. The closed dishes were labeled and held at a temperature of 80°±5° F. for three days. Although the larvae could easily consume the leaf within 24 to 48 hours, no more food was added. Larvae which were unable to move the length of the body, even upon stimulation, were considered dead.
as §2, §3

[3] = system: root-knot nematode, Meloidogyne incognita var. acrita; assay: Nematocide Test; type: in vivo; design: key: C: no control; B: partial control; A: excellent control; conditions: 3.33 m.g. per jar, galling of cucumber rated after approximately 3 weeks
Protocol: The test organism used was the infective migratory larvae of the root-knot nematode, Meloidogyne incognita var. acrita, reared in the greenhouse on roots of cucumber plants. Infected plants were removed from the culture, and the roots are chopped very finely. A small amount of this inoculum was added to a pint jar containing approximately 180 cc. of soil. The jars were capped and incubated for one week at room temperature. During this period eggs of the nematode were hatched, and the larval forms migrated into the soil.
Ten ml. of the test formulation were added to each of the two jars for each dosage tested. Following the addition of chemical, the jars were capped, and the contents thoroughly mixed on a ball mill for 5 minutes.
The test compounds were formulated by a standard procedure of solution in acetone addition of an emulsifier, and dilution with water. Primary screening tests were conducted at 3.33 m.g. of the test compound per jar.
The jars were left capped at room temperature for a period of 48 hours, and the contents then transferred to 3 inch pots. Subsequently, the pots were seeded to cucumber as an indicator crop and placed in the greenhouse where they were cared for in the normal fashion for approximately 3 weeks.
The cucumber plants were then taken from the pots, the soil removed from the roots, and the amount of galling visually rated.
In the tests described above, the pesticidal activity of the compounds against aphid, mite, Southern Armyworm, Bean Beetle, house fly and nematode was rated as follows: […]

[4] = Peroral toxicity to mammals (rat); conditions: in vivo, po
Protocol: Certain of these compositions were also evaluated to determine their peroral toxicity to mammals. The animal selected for this experiment was the rat. The test results obtained are expressed in terms of the number of milligrams of composition per kilogram of weight of the animal required to achieve a mortality rate of 50 percent (LD50).

Chemical stability = type: physicochemical; conditions: Table II

Compound | Armyworm [1] | Beetle [2] | Nematode [3] | LC50 [1] [µg/mL] | LC50 [2] [µg/mL] | LD50 ([4]; Table II) [mg/kg] | Stability (Chemical stability) | LD50 ([4]; peroral, Table I) [mg/kg]
CC(=NOC(=O)N(C)SC(Cl)(Cl)Cl)C(C)(C)C#N | B | A | C |  |  |  |  | 
CN(SC(Cl)(Cl)Cl)C(=O)ON=CC(C)(C)C#N [2-Methyl-2-cyanopropionaldehyde O-(N-methyl-N-trichloromethanesulfenylcarbamoyl)oxime] | A | A | C | 50 (≈ 157 µM) | 45 (≈ 141 µM) | 28.3 | stable | 
CN(SC(F)(F)F)C(=O)ON=CC(C)(C)C#N [drawing 12] | A | A | A |  |  |  |  | 
CC(=NOC(=O)N(C)SC(Cl)(Cl)Cl)C(C)(C)[N+](=O)[O-] | B | A | A |  |  |  |  | 
CSCC(C)=NOC(=O)N(C)SC(Cl)(Cl)Cl | C | C | C |  |  |  |  | 
CCOC(=O)CSC(C)=NOC(=O)N(C)SC(Cl)(Cl)Cl | C | C | C |  |  |  |  | 
CSC(=NOC(=O)N(C)SC(Cl)(Cl)Cl)C(C)(SC)SC | C | A | C |  |  |  |  | 
CN(SC(Cl)(Cl)Cl)C(=O)ON=CC(C)(C)[S+](C)[O-] (stereo not shown) [2-Methyl-2-methylsulfinylpropionaldehyde O-(N-methyl-N-trichloromethanesulfenylcarbamoyl)oxime] | A | A | A |  |  |  |  | 
CSCC(=NOC(=O)N(C)SC(Cl)(Cl)Cl)C(C)(C)C | C | A | C |  |  |  |  | 
CC(C[N+](=O)[O-])=NOC(=O)N(C)SC(Cl)(Cl)Cl | C | B | C |  |  |  |  | 
CCOC(=O)C(C)SC(C)(C)C=NOC(=O)N(C)SC(Cl)(Cl)Cl (stereo not shown) | C | C | C |  |  |  |  | 
CC(=NOC(=O)N(C)SC(Cl)(Cl)Cl)C(C)(C)N=[N+]=[N-] | C | A | C |  |  |  |  | 
CN(SC(Cl)(Cl)Cl)C(=O)ON=CC(C)(C)[N+](=O)[O-] [2-Methyl-2-nitropropionaldehyde O-(N-methyl-N-trichloromethanesulfenylcarbamoyl)oxime] | A | A | A | 130 (≈ 384 µM) | 17 (≈ 50.2 µM) | 14 | stable | 13
CC(=NOC(=O)N(C)SC(Cl)(Cl)Cl)SCCC#N [1-(2-Cyanoethylthio)acetaldehyde O-(N-methyl-N-trichloromethanesulfenylcarbamoyl)oxime] | A | A | C | 6 (≈ 17.1 µM) | 15 (≈ 42.8 µM) |  | stable | 85.7
CCOC(=O)CCSC(C)=NOC(=O)N(C)SC(Cl)(Cl)Cl | B | B | C |  |  |  |  | 
COC(C)(C)C(Cl)=NOC(=O)N(C)SC(Cl)(Cl)Cl | C | A | A |  |  |  |  | 
CC(CSC(C)(C)C)=NOC(=O)N(C)SC(Cl)(Cl)Cl | C | C | C |  |  |  |  | 
CN(SC(Cl)(Cl)Cl)C(=O)ON=CC(C)(C)S(C)(=O)=O [2-Methyl-2-methylsulfonylpropionaldehyde O-(N-methyl-N-trichloromethanesulfenylcarbamoyl)oxime] | C | A | C |  |  |  |  | 
CCOC(=O)CSC(C)(C)C=NOC(=O)N(C)SC(Cl)(Cl)Cl | C | B | C |  |  |  |  | 
